From the NIST ThermoML archive (doi:10.1021/acs.jced.6b00700)
Numbers after ± are expanded uncertainties. One block for each molecule: values may come before it.

What was measured:
[1] = Liquid, Ebulliometric method (Recirculating still)
[2] = refractive index (Na D-line) (dimensionless); conditions: 293 K; 96.15 kPa; Liquid; Standard Abbe refractometry
[3] = refractive index (Na D-line) (dimensionless); xn = mol fraction of the nth substance listed; conditions: 293 K, 96.15 kPa, Liquid, Standard Abbe refractometry

vapor or sublimation pressure ([1]; 388.91 K): 96.15 ± 0.98 kPa
refractive index [2]: 1.3724 ± 0.004
SMILES: CC(=O)O [acetic acid]

refractive index ([3]; x1 = 1): 1.3724 ± 0.004
SMILES: CC(=O)O [acetic acid] + COc1ccccc1

SMILES: CC(C)=O [acetone]
vapor or sublimation pressure ([1]; 327.9 K): 96.15 ± 0.98 kPa
refractive index [2]: 1.3606 ± 0.004

SMILES: CC(C)=O [acetone] + COc1ccccc1
refractive index ([3]; x1 = 1): 1.3606 ± 0.004

SMILES: Nc1ccccc1 [aniline]
vapor or sublimation pressure ([1]; 455.4 K): 96.15 ± 0.99 kPa
refractive index [2]: 1.5868 ± 0.004

SMILES: Nc1ccccc1 [aniline] + CN(C)C=O
refractive index ([3]; x2 = 0): 1.5868 ± 0.004
refractive index ([3]; x2 = 0.0624): 1.5795 ± 0.004
refractive index ([3]; x2 = 0.1252): 1.5723 ± 0.004
refractive index ([3]; x2 = 0.2423): 1.5575 ± 0.004
refractive index ([3]; x2 = 0.3527): 1.543 ± 0.004
refractive index ([3]; x2 = 0.459): 1.5267 ± 0.004
refractive index ([3]; x2 = 0.5592): 1.5119 ± 0.004
refractive index ([3]; x2 = 0.6561): 1.4975 ± 0.004
refractive index ([3]; x2 = 0.7474): 1.4799 ± 0.004
refractive index ([3]; x2 = 0.8363): 1.4638 ± 0.004
refractive index ([3]; x2 = 0.9206): 1.4477 ± 0.004
refractive index ([3]; x2 = 0.9602): 1.4401 ± 0.004

SMILES: COc1ccccc1 [anisole]
vapor or sublimation pressure ([1]; 424.55 K): 96.15 ± 0.99 kPa
vapor or sublimation pressure ([1]; 424.61 K): 96.15 ± 0.99 kPa
vapor or sublimation pressure ([1]; 424.79 K): 96.15 ± 0.99 kPa
refractive index [2]: 1.5175 ± 0.004

SMILES: COc1ccccc1 [anisole] + CC(=O)O
refractive index ([3]; x2 = 0): 1.5175 ± 0.004
refractive index ([3]; x2 = 0.0875): 1.5107 ± 0.004
refractive index ([3]; x2 = 0.167): 1.503 ± 0.004
refractive index ([3]; x2 = 0.3109): 1.4878 ± 0.004
refractive index ([3]; x2 = 0.4358): 1.4731 ± 0.004
refractive index ([3]; x2 = 0.5453): 1.4584 ± 0.004
refractive index ([3]; x2 = 0.6416): 1.4441 ± 0.004
refractive index ([3]; x2 = 0.7302): 1.4295 ± 0.004
refractive index ([3]; x2 = 0.8075): 1.4155 ± 0.004
refractive index ([3]; x2 = 0.877): 1.4018 ± 0.004
refractive index ([3]; x2 = 0.9413): 1.3874 ± 0.004
refractive index ([3]; x2 = 0.9711): 1.3807 ± 0.004

SMILES: COc1ccccc1 [anisole] + CC(C)=O
refractive index ([3]; x2 = 0): 1.5175 ± 0.004
refractive index ([3]; x2 = 0.0888): 1.5095 ± 0.004
refractive index ([3]; x2 = 0.1723): 1.4998 ± 0.004
refractive index ([3]; x2 = 0.3184): 1.4879 ± 0.004
refractive index ([3]; x2 = 0.4448): 1.4709 ± 0.004
refractive index ([3]; x2 = 0.5541): 1.459 ± 0.004
refractive index ([3]; x2 = 0.6508): 1.4441 ± 0.004
refractive index ([3]; x2 = 0.736): 1.4285 ± 0.004
refractive index ([3]; x2 = 0.8121): 1.406 ± 0.004
refractive index ([3]; x2 = 0.8816): 1.3923 ± 0.004
refractive index ([3]; x2 = 0.9434): 1.3746 ± 0.004
refractive index ([3]; x2 = 0.9725): 1.3678 ± 0.004

SMILES: COc1ccccc1 [anisole] + CC(C)O
refractive index ([3]; x2 = 0): 1.5175 ± 0.004
refractive index ([3]; x2 = 0.0879): 1.5092 ± 0.004
refractive index ([3]; x2 = 0.1663): 1.5011 ± 0.004
refractive index ([3]; x2 = 0.3122): 1.484 ± 0.004
refractive index ([3]; x2 = 0.4359): 1.4688 ± 0.004
refractive index ([3]; x2 = 0.5438): 1.4543 ± 0.004
refractive index ([3]; x2 = 0.6429): 1.4403 ± 0.004
refractive index ([3]; x2 = 0.7293): 1.4272 ± 0.004
refractive index ([3]; x2 = 0.8063): 1.4143 ± 0.004
refractive index ([3]; x2 = 0.879): 1.4019 ± 0.004
refractive index ([3]; x2 = 0.9372): 1.3911 ± 0.004
refractive index ([3]; x2 = 0.9693): 1.3861 ± 0.004

SMILES: CN(C)C=O [dimethylformamide]
vapor or sublimation pressure ([1]; 424.53 K): 96.15 ± 0.99 kPa
vapor or sublimation pressure ([1]; 424.6 K): 96.15 ± 0.99 kPa
refractive index [2]: 1.4318 ± 0.004

SMILES: CN(C)C=O [dimethylformamide] + Nc1ccccc1
refractive index ([3]; x1 = 1): 1.4318 ± 0.004

vapor or sublimation pressure ([1]; 354.17 K): 96.15 ± 0.98 kPa
refractive index [2]: 1.3758 ± 0.004
SMILES: CC(C)O [propan-2-ol]

refractive index ([3]; x1 = 1): 1.3758 ± 0.004
SMILES: CC(C)O [propan-2-ol] + COc1ccccc1
